“Also recorded” adds a separate entry of the source.

Results on three molecules are retold here after publication PMC6892255, “Identification of a potent small-molecule inhibitor of bacterial DNA repair that potentiates quinolone antibiotic activity in methicillin-resistant Staphylococcus aureus^” (Bioorganic & Medicinal Chemistry, 2019).

Test [1] relates to S. aureus SH1000. Description: MIC / growth inhibition assay (end-point OD600), single agent. The test is classed as cell-based. Conditions: Staphylococcus aureus, SH1000, 18 h, end-point OD600 after 18 h, read-out: EC50 S. aureus (SH1000) Compound only. The source says: (§1) Minimum inhibitory concentration (MIC) assays were used to evaluate the antimicrobial activity of compounds against Gram-negative (E. coli) and Gram-positive (S. aureus) bacteria. […] Gram-positive bacteria are more susceptible to small-molecule penetration, and compounds were therefore assessed for growth inhibition against the S. aureus SH1000 strain.
(§2) 2.1. Biological and biochemical methods
(§3) Bacterial strains and culture conditions
(§4) Strains utilized in the present study are detailed in Table S1. All strains used were cultivated on Mueller Hinton Agar (MHA) and grown to stationary-phase in Mueller Hinton Broth (MHB) at 37 °C for 16 h, with shaking at 180 r.p.m.
(§5) Minimum inhibitory concentration (MIC) assays
(§6) MIC assays were performed in 96 well plates and MICs were determined in accordance with the broth microdilution protocol.4 Strains grown to stationary-phase in MHB were adjusted to 5 x 10^5 colony-forming units (CFU)/mL in fresh MHB (100 µL/well) supplemented with DMSO to ensure a constant concentration of 0.5% (v/v) DMSO across all experiments. Where […]
(§7) or H2O2 (200 μM). Test compounds were prepared as two-fold serial dilutions. Cells were […]
(§8) as the lowest concentration with no visible bacterial growth, and the optical density at 600 nm (OD600) was recorded. OD600 measurements were background corrected against no-inocula control and normalized to DMSO control for dose-response analysis. The EC50 value mean and SEM were calculated from individual EC50 values from three biological replicates. […]

The test system of test [2] is methicillin-resistant S. aureus (MRSA, USA300 JE2). The experiment in a line: Ciprofloxacin (CFX) potentiation in MRSA growth inhibition assay. The test is classed as cell-based, Staphylococcus aureus. Conditions: for EC50: read-out: EC50 S. aureus (USA300 JE2) Compound + CFX (9.4 μM), in presence of half-MIC CFX (9.4 μM). The method, then:
as §2, §3, §4, §5, §6, §7, §8

The test system of test [3] is MRSA (USA300 JE2). Description: Growth inhibition in the presence of H2O2. The test is classed as cell-based, Staphylococcus aureus. Conditions: read-out: EC50 Compound + H2O2 (200 µM); MRSA USA300 JE2, H2O2 200 µM. As to the method:
(§9) The analogue panel was further tested for potentiation of alternative DNA-damaging agents Mitomycin-C (MMC) and hydrogen peroxide (Table S2), which function via alkylation and oxidization DNA bases, respectively.
as §2, §3, §4, §5, §6, §7, §8

The target of test [4] is T1, E. coli topoisomerase IV (Escherichia coli, UniProt P0AFI2+P20083).
T1 construct: purchased Inspiralis
T1 sequence (P0AFI2 whole entry): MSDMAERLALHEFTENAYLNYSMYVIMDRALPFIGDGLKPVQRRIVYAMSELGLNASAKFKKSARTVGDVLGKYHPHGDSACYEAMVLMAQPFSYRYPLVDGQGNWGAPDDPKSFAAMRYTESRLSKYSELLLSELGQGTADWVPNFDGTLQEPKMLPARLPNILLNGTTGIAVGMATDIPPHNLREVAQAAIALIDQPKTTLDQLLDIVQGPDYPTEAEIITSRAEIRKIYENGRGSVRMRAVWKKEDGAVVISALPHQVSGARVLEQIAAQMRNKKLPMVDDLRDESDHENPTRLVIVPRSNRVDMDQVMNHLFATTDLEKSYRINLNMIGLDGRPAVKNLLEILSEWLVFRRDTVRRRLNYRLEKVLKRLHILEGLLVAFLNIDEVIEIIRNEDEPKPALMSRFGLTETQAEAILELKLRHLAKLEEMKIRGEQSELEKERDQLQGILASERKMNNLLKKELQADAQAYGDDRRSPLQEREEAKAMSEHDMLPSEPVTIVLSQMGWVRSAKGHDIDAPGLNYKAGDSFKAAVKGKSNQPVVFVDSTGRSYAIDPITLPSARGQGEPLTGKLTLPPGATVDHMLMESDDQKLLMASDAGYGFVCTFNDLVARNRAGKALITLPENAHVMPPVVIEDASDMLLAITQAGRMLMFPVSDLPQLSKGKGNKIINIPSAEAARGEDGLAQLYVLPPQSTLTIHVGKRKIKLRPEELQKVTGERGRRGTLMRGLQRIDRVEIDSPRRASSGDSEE
T1 sequence (P20083 whole entry): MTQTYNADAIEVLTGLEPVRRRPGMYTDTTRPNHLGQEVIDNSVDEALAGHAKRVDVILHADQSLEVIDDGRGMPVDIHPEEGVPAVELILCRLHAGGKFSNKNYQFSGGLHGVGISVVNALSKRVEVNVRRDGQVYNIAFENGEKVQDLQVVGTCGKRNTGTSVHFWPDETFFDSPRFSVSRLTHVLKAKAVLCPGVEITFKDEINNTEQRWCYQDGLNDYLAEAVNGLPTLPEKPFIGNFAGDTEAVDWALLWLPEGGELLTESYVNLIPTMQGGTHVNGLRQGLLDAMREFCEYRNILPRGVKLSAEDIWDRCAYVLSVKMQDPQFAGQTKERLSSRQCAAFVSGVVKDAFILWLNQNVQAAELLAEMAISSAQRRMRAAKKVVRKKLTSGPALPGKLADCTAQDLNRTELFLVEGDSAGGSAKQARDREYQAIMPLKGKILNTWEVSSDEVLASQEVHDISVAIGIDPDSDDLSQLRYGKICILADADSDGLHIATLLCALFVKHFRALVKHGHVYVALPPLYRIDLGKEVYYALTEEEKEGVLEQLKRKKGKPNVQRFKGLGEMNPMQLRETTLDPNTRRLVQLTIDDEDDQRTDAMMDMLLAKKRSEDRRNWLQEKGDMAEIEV
Description: Topoisomerase IV supercoiling relaxation assay (pQE80L). The class given is biochemical. Conditions: at 12.5 µM (compounds). As to the method:
2.1. Biological and biochemical methods […]
E. coli DNA gyrase supercoiling assay (Inspiralis) was performed according to the manufacturer’s instructions, ensuring a constant concentration of 1% (v/v) DMSO. Samples were separated on a 1% (w/v) agarose gel prepared with Tris/Borate/EDTA (TBE) buffer (1 M Tris-borate, 20 mM EDTA, pH 8.0). Electrophoresis was performed at 100 V until the bromophenol blue dye had run >6 cm to ensure resolution of relaxed and supercoiled DNA.
The gel was stained with SYBR Safe DNA gel stain (Invitrogen, 1:10,000 dilution in TBE) for 30 min, and visualized on a Syngene Gel Doc system. Band intensity was quantified using ImageJ software and the fraction of supercoiled plasmid was determined as the ratio of the density of the supercoiled band to the total density. Values were background corrected against the no-gyrase control and normalized to DMSO control for dose-response analysis.
E. coli topoisomerase IV supercoiling relaxation assay (Inspiralis) was performed according to the manufacturer’s instructions, ensuring a constant concentration of 1% (v/v) DMSO.
Supercoiled pQE80L was prepared via plasmid purification and used as the substrate for the reaction. Reactions were analyzed as described for DNA gyrase assays. […]

Test [5] concerns E. coli K-12 BW25113. The experiment in a line: MIC / growth inhibition assay (end-point OD600), single agent. The test is classed as cell-based, Escherichia coli. Conditions: Escherichia coli, BW25113, end-point OD600 after 18 h, read-out: EC50 E. coli (K12 BW25113) Compound only.
Description: as §1, §2, §3, §4, §5, §6, §7, §8

Test [6] has as its system JE2. The experiment in a line: Synergy experiments with CFX (growth rate method, Chou-Talalay, CompuSyn). The test is classed as cell-based, Staphylococcus aureus. Conditions: for Combination index (CI) with CFX: JE2, constant-ratio combination with CFX, CompuSyn; for EC50: Staphylococcus aureus, JE2, rate of exponential growth phase over 17 h at 37 °C. The method, then: A more precise method to determine EC50 values for individual compounds and combinations was used to increase accuracy for CI calculations. […]
Synergy experiments were performed as described for MIC assays. Two-fold serial dilutions […]
carried out at 37 °C, with shaking at 220 r.p.m. OD600 was recorded every 30 min over a 17 h period. Measurements were background corrected against the no-inocula control before a growth curve of OD600 against time was constructed. The gradient of the exponential phase was obtained by linear regression. Gradients were normalized against the smallest and largest value within the respective data set prior to analysis with the CompuSyn software (http://www.combosyn.com/) to calculate combination index (CI) and dose-reduction index (DRI) values for each drug combination. […]

For test [7], the system named is methicillin-resistant S. aureus (MRSA, USA300 JE2). The experiment in a line: MIC / growth inhibition assay (end-point OD600), single agent. The test is classed as cell-based, Staphylococcus aureus.
Description: as §1
Methicillin-resistant S. aureus (MRSA) is a multi-drug resistant bacterium responsible for a large number of nosocomial infections.[34] The emergence of community associated (CA)-MRSA capable of infection of healthy individuals highlights its significance and clinical relevance.[35]
as §2, §3, §4, §5, §6, §7, §8

The test system of test [8] is MRSA (USA300 JE2). Description: Growth inhibition in the presence of mitomycin-C. The test is classed as cell-based, Staphylococcus aureus. Conditions: read-out: EC50 Compound + MMC (0.40 µM); MRSA USA300 JE2, mitomycin-C 0.40 µM. As to the method: as §9, §2, §3, §4, §5, §6, §7, §8
Test [9] deals with AddAB (StrepII-AddA and His6-AddB). The experiment in a line: Recombinant AddAB pulldown with compound-functionalized Sepharose. The test is classed as binding. Conditions: E. coli lysate co-expressing StrepII-AddA and His6-AddB, Western blot. The text has this:
A SOS reporter system was generated by transformation of JE2 cells with a plasmid containing GFP under control of the recA promoter. Activation of the SOS response in these cells results in expression of GFP which can be monitored by fluorescence intensity. […] This decrease is indicative of inhibition of the SOS response during cell death, and consistent with the proposed inhibition of AddAB-mediated DNA repair pathways. Finally, to provide additional evidence that inhibition of the bacterial DNA repair pathway by IMP-1700 (10) occurred through inhibition of AddAB, a target pulldown was conducted. IMP-1700 (10) was coupled with N-Boc-ethylenediamine to afford amide 19, followed by removal of the Boc group in 4 M HCl/dioxane and purification using strong cation exchange resin. The resulting free amine 20 was coupled to N-hydroxysuccinimide (NHS)-activated Sepharose resin at 4 °C overnight (Figure 2C), and the remaining NHS sites quenched in Tris buffer. SoluBL21 competent E. coli were transformed with pET28b^+ containing StrepII-tagged AddA and hexahistidine-tagged AddB, and expression induced overnight at 16 °C. Cells were lysed via sonication and the total lysate incubated with IMP-1700 (10)-functionalized or control Sepharose beads which had been treated with DMSO then Tris-quenched. Beads were washed three times with lysis buffer and bound protein eluted with SDS-PAGE sample buffer, followed by PAGE separation. […]
agar (LA) supplemented with kanamycin (50 μg/mL). Liquid cultures were grown at 37 °C with shaking at 180 r.p.m until an OD600 of 0.5 was reached, at which point cultures were cooled to 16 °C. Protein expression was induced by addition of isopropyl β-D-thiogalactoside (1 mM), followed by incubation for 20 h at 16 °C with shaking. Cells were collected by centrifugation (4,000 × g, 5 min) and stored at -20 °C.
Cells were re-suspended in lysis buffer (50 mM Tris-HCl, 150 mM NaCl, pH 7.5) and lysed on ice by sonication (2 min, 5 s on-off cycle, 40% amplitude) using a Vibra-cell sonicator (Sonics). […]
A general note: A western blot detects proteins with antibodies after separation by electrophoresis.

Test [10] has as its system SOS response in JE2 cells. Description: SOS reporter assay (GFP under control of the recA promoter). The class given is cell-based, Staphylococcus aureus. Conditions: JE2 recA-GFP reporter, SOS activated with CFX (10 µM), titration of compound. The text has this: A SOS reporter system was generated by transformation of JE2 cells with a plasmid containing GFP under control of the recA promoter. Activation of the SOS response in these cells results in expression of GFP which can be monitored by fluorescence intensity. […] IMP-1700 (10) was coupled with N-Boc-ethylenediamine to afford amide 19, followed by removal of the Boc group in 4 M HCl/dioxane and purification using strong cation exchange resin. The resulting free amine 20 was coupled to N-hydroxysuccinimide (NHS)-activated Sepharose resin at 4 °C overnight (Figure 2C), and the remaining NHS sites quenched in Tris buffer. SoluBL21 competent E. coli were transformed with pET28b^+ containing StrepII-tagged AddA and hexahistidine-tagged AddB, and expression induced overnight at 16 °C. […] Beads were washed three times with lysis buffer and bound protein eluted with SDS-PAGE sample buffer, followed by PAGE separation. […]
JE2 transformed with SOS-inducible pCN34 PrecA-gfp reporter plasmid expressing GFP under the control of the recA promoter were grown to late stationary phase at 37 °C in MHB containing kanamycin (90 μg/mL). Stationary phase JE2 culture (1 mL) was centrifuged (17,000 × g, 2 min), the supernatant removed and cells resuspended in assay media (12.5 µM […]
concentration was maintained >12.5 µM and DMSO concentration maintained at 1.5% (v/v).
JE2 culture (20 uL) was added to inhibitor solutions (180 µL) to a final cell density of 4 x 10^7 CFU/mL and samples incubated in a M200-PRO microplate reader (Tecan) at 37 °C with 700 rpm agitation for 17 h. GFP fluorescence intensity and OD600 were measured at 15 min intervals. Measurements were background corrected against no-inocula control and normalized to no-test inhibitor control at mid-exponential growth phase (4.5 h) for dose-response analysis. […]

Where [11] appears, read: Staphylococcus aureus, 18 h, read-out: EC50 S. aureus (USA300 JE2) Compound only, single agent, end-point OD600 after 18 h.

Take `CCn1cc(C(=O)O)c(=O)c2cnc(N3CCN(C(=S)Nc4cccc(C(F)(F)F)c4)CC3)nc21` [Compound 1, reference compound]: the EC50 (in general, the midpoint of the concentration-response curve) in test [1] is 8.2 ± 1.7 µM; in test [2], 1.1 ± 0.1 µM; in [3], 6.5 ± 0.1 µM; in [5], more than 100 µM; in test [6], 5.9 ± 0.2 µM; in test [7] (setting [11]), 6.9 ± 0.6 µM. For the same molecule, the EC50 in test [8] stood at 3.3 ± 0.6 µM. Moreover, the “Inhibition of topoisomerase IV” value in test [4] was “not inhibited and not”. For the same molecule, the “Combination index (CI) with CFX” value in test [6] is 1.0.
Consider `CCn1cc(C(=O)O)c(=O)c2cnc(N3CCN(C(=S)Nc4cccc(Cl)c4)CC3)nc21` [Compound 5], for which the EC50 in test [1] is approximately 6 µM; in test [2], 0.31 ± 0.02 µM; in test [3], 8.4 ± 0.2 µM; in [5], more than 100 µM; in [6], 6.2 ± 0.1 µM; in [7] (setting [11]), approximately 6 µM. In addition, the EC50 was 6.9 ± 0.1 µM in test [7] (read-out: EC50 S. aureus (USA300 JE2) Compound only, single agent, end-point OD600 after 18 h) and 4.5 ± 1.2 µM in test [8]. The “fold increase in potency against JE2 in the presence of CFX compared to single agent” value in test [2] (CFX 9.4 µM) is approximately 20 fold. In test [4], the “Inhibition of topoisomerase IV” value is “not”. The “Combination index (CI) with CFX” value in [6] was 0.96.
For `O=C(O)c1cn(C2CC2)c2cc(N3CCN(C(=O)Nc4ccccc4)CC3)c(F)cc2c1=O` [Compound 21], in test [2] (compared to IMP-1700 (10)), the “fold weaker potentiation of CFX in MRSA growth assays” value is approximately 100 fold. Moreover, in [9], the “Pulldown of AddA and AddB by compound-functionalized Sepharose” value was “no interaction; also recorded: did not; also recorded: does not pulldown”. The “SOS response (normalized GFP fluorescence/cell)” value in [10] was “did not inhibit the SOS response; also recorded: SOS activation increased”.
